Experimental findings from ChEMBL document CHEMBL1135899, “Design, synthesis, and evaluation of opioid analogues with non-peptidic beta-turn scaffold: enkephalin and endomorphin mimetics” (J Med Chem, 2002) are described below.

For experiment [1], the target named is T1, Opioid receptor (Rattus norvegicus) (UniProt P33533+P34975+P33535). Put plainly: Inhibition of [3H]naloxone binding to opioid receptor in rat cerebral cortex at 0.1 uM. It counts as tissue-based.
Experiment [2] addresses Kappa-type opioid receptor (Homo sapiens) (UniProt P41145). In words: Ability to displace [3H]-U 69593 from human Opioid receptor kappa 1 at 0.1 uM.
Experiment [3] deals with delta opioid receptor (Homo sapiens) (UniProt P41143). Put plainly: Displacement of [3H]DPDPE from human delta opioid receptor at 0.1 uM. For orientation: In a radioligand displacement assay an active substance lowers the binding of a labelled ligand.
Experiment [4] deals with Mu-type opioid receptor (Homo sapiens) (UniProt P35372). In words: Ability to displace [3H]DAMGO from human Opioid receptor mu 1 at 0.1 uM.
The target in experiment [5] is Opioid receptor (Rattus norvegicus, UniProt P33533+P34975+P33535). Put plainly: Inhibition of [3H]-Naloxone binding to opioid receptor in rat cerebral cortex. It counts as tissue-based.
The target of experiment [6] is T1, Opioid receptor (Rattus norvegicus). Put plainly: Inhibition of [3H]naloxone binding to opioid receptor in rat cerebral cortex at 1 uM. Format: tissue-based.
Experiment [7] addresses Mu-type opioid receptor (Homo sapiens) (UniProt P35372). Put plainly: Ability to displace [3H]-DAMGO from human Opioid receptor mu 1 at 0.1 uM.

Broadly, the inhibition is the drop in the measured response relative to a control, in per cent. Low readings indicate a weak effect, high ones a strong effect. As a reminder, the IC50 is the concentration that gives 50% inhibition. Read a high IC50 as weaker potency in that assay.

T1 sequence (P33533 whole entry, looked up): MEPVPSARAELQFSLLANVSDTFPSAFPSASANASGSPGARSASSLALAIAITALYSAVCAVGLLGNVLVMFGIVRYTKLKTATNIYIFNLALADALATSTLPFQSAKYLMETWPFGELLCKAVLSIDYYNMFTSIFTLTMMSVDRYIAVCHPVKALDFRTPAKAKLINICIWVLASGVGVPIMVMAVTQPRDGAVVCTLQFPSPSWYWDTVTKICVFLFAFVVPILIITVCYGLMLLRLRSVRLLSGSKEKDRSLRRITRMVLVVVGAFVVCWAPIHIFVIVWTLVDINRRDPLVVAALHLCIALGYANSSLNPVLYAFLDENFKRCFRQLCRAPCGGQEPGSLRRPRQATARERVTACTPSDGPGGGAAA
T1 sequence (P33535 whole entry, looked up): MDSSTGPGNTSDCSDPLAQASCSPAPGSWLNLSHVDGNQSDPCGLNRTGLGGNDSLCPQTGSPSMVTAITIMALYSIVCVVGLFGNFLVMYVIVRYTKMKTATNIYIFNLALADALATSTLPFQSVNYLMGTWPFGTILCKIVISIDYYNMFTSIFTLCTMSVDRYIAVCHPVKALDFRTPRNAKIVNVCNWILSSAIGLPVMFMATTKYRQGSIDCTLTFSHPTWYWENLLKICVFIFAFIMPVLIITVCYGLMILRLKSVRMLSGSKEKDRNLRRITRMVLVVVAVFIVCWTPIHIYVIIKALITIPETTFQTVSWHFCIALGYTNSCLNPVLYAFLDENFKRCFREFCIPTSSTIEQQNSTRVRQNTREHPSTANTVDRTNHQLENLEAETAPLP
T1 sequence (P34975 whole entry, looked up): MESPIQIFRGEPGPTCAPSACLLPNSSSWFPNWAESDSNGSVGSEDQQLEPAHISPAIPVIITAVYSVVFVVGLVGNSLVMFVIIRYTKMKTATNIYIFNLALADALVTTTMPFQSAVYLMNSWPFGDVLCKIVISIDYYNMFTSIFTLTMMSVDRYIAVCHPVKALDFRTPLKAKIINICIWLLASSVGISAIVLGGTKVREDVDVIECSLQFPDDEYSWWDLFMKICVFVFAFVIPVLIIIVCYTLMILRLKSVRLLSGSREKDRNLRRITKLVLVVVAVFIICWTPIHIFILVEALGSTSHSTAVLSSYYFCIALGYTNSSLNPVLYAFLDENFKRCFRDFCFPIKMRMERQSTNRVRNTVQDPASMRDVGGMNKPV
delta opioid receptor (Homo sapiens), sequence (P41143 whole entry, looked up): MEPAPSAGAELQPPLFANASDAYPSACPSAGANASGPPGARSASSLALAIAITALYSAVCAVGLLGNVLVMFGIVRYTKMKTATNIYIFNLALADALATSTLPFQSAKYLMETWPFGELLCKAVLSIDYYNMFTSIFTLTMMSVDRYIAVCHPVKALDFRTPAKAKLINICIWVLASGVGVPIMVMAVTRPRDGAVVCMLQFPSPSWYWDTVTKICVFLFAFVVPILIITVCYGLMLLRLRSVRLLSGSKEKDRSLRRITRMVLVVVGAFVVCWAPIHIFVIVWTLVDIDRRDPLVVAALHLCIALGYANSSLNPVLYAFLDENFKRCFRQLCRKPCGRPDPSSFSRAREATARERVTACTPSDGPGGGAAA
Mu-type opioid receptor (Homo sapiens), sequence (P35372 whole entry): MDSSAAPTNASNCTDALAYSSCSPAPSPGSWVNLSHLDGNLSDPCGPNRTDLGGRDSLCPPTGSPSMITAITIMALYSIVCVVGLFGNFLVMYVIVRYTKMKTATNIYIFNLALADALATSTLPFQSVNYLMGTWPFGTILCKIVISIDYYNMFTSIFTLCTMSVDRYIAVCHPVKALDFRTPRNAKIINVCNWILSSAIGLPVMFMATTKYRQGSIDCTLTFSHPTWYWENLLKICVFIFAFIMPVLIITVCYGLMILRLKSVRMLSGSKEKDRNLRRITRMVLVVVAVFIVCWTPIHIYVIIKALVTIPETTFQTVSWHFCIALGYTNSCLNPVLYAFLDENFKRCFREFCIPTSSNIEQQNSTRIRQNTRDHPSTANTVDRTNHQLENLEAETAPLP
Kappa-type opioid receptor (Homo sapiens), sequence (P41145 whole entry): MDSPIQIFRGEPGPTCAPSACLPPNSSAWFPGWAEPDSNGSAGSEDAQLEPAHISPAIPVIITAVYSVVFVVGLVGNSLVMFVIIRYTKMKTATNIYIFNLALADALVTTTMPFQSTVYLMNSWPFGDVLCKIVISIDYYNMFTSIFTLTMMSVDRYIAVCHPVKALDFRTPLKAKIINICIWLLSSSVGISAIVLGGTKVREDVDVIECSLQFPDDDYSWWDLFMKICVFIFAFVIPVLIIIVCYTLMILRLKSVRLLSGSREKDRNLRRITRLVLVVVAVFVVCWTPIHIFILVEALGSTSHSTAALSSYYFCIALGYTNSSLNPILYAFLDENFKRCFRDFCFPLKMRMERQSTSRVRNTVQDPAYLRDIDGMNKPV

As for `O=C1[C@H](CCc2ccccc2)N2C(=O)CCN(C(=O)OCCc3ccc(O)cc3)[C@H]2CN1CCc1ccccc1`, in experiment [1], the inhibition is 91%. Besides, the Selectivity in experiment [2] is below 10%; in experiment [3] it was below 10%; in experiment [4] it was 101%. For the same compound, the IC50 in experiment [5] is listed as 9 nM.
Take `O=C1[C@H](Cc2ccccc2)N2C(=O)CCN(C(=O)OCCc3ccc(O)cc3)[C@H]2CN1CCc1ccccc1`: the inhibition in experiment [6] was found to be 96%. In experiment [5], this compound returned an IC50 of 80 nM.
On to `CCCCCNC(=O)[C@H](CCc1ccccc1)NC(=O)CCNC(=O)OCCc1ccc(O)cc1`, for which the inhibition in experiment [6] is below 10%. In experiment [5], this compound came in with an IC50 above 1000 nM.
Take `CCCCCN1C[C@@H]2N(C(=O)OCCc3ccc(O)cc3)CCC(=O)N2[C@@H](CCc2ccccc2)C1=O`: the results for the inhibition in experiment [1] and in experiment [6] were 79% and 99%, respectively. Moreover, the Selectivity in experiment [2] was below 10%; in experiment [7], 91%; in experiment [3], below 10%. Also, in experiment [5], the IC50 is 27 nM.
With `CCCCCN1C[C@@H]2N(C(=O)OCCc3ccc(O)cc3)CCC(=O)N2[C@@H](Cc2ccccc2)C1=O`, the inhibition in experiment [6] is 84%. The compound also had an IC50 in experiment [5] of 149 nM.
